{"source": "patent US8530513B1", "about": "“Pharmaceutical uses of diterpene excavatolide B from a coral or an analogue thereof” (National Sun Yat-Sen University, priority 2012, dated 2013)", "key": {"TNF-α": {"test_system": "TNF-α", "assay": "LPS-induced TNF-α expression in mouse bone marrow-derived dendritic cells, ELISA", "format": "cell-based", "conditions": "LPS 100 ng/ml plus BrD1 at different concentrations, 24 h", "source_text": "For mouse bone marrow-derived DCs (BMDCs), five to six-week-old female C57BL/6JNarl mice were purchased from the National Laboratory Animal Center, Taiwan and kept under SPF conditions. BMDCs were generated from bone marrow cells of C57BL/6 mice as described previously (Yin S Y, Wang W H, Wang B X, Aravindaram K, Hwang P I, Wu H M, Yang N S. BMC genomics 2010, 11:612). In brief, bone marrow was isolated from femurs and tibiae which were then flushed with RPMI-1640 medium using a syringe with a 0.45-mm needle on Day 0. Red blood cells in suspension were lysed for […] with ACK lysing buffer (150 mM NH4Cl, 1.0 mM KHCO3, 0.1 mM EDTA). Bone marrow cells were suspended at a density of 1×10^7 cells/30 ml in RPMI-1640 containing 10% FBS, 2 mM L-glutamine, 1% of nonessential amino acids, 100 U/mL penicillin and 100 μg/mL streptomycin supplemented with 20 ng/mL of mGM-CSF in 15-cm dishes at 37° C. with 5% CO2. On day 2, two-thirds of the medium was removed and 30 mL fresh medium with mGM-CSF was added to the cells. On day 5, culture plates were gently swirled and the floating and loosely adherent cells were discarded. Aliquots of 75% culture media were replenished with 20 ng/mL mGM-CSF and 20 ng/mL mIL-4. […]"}, "Akt": {"test_system": "Akt", "assay": "TPA-stimulated Akt phosphorylation in mouse skin, western blot", "format": "in vivo", "conditions": "topical for 2 h after TPA", "procedure": "(§1) Shaven abdominal skins of female C57BL/6JNarl mice were not treated or topically treated with vehicle (acetone, 200 μl/site) or TPA (10 nmol in 200 μl acetone/site) at indicated time points or treated first with TPA for 10 min, then with the indicated concentrations of BrD1 at the indicated time points. Abdominal skin samples were collected, homogenated and lysed to prepare total proteins. Protein samples were subsequently resolved by SDS-PAGE using a gradient gel. The resolved proteins were transferred to a PVDF Immobilon-P membrane (Millipore, Bedford, Calif.), and the membrane was blocked with 5% non-fat dry milk in PBST buffer (phosphate-buffered saline (PBS) containing 0.1% Tween 20) for 60 minutes at room temperature. The membranes were incubated overnight at 4° C. with commercially available antibodies (1:1000 dilutions). Loading of equal amounts of protein was assessed using mouse β-actin. The blots were rinsed three times with PBST buffer for 5 minutes. Washed blots were incubated with HRP-conjugated secondary antibody (1:100,000 dilution), then washed again three times with PBST buffer. […] Quantification of bands was performed using Image J software.\n(§2) We therefore evaluated whether BrD1 could interfere with TPA-induced activation of Akt and Erk in inflamed skin. […] We thus determined the phosphorylation level of Akt, Erk, NF-κB and IκBα in skins subjected to different treatments. […]"}, "IL-6": {"test_system": "IL-6", "assay": "LPS-induced IL-6 expression in mouse bone marrow-derived dendritic cells, ELISA", "format": "cell-based", "conditions": "for IL-6 expression in LPS-stimulated dendritic cells: LPS 100 ng/ml plus BrD1 at different concentrations, 24 h", "source_text": "For mouse bone marrow-derived DCs (BMDCs), five to six-week-old female C57BL/6JNarl mice were purchased from the National Laboratory Animal Center, Taiwan and kept under SPF conditions. BMDCs were generated from bone marrow cells of C57BL/6 mice as described previously (Yin S Y, Wang W H, Wang B X, Aravindaram K, Hwang P I, Wu H M, Yang N S. BMC genomics 2010, 11:612). In brief, bone marrow was isolated from femurs and tibiae which were then flushed with RPMI-1640 medium using a syringe with a 0.45-mm needle on Day 0. Red blood cells in suspension were lysed for […] with ACK lysing buffer (150 mM NH4Cl, 1.0 mM KHCO3, 0.1 mM EDTA). Bone marrow cells were suspended at a density of 1×10^7 cells/30 ml in RPMI-1640 containing 10% FBS, 2 mM L-glutamine, 1% of nonessential amino acids, 100 U/mL penicillin and 100 μg/mL streptomycin supplemented with 20 ng/mL of mGM-CSF in 15-cm dishes at 37° C. with 5% CO2. On day 2, two-thirds of the medium was removed and 30 mL fresh medium with mGM-CSF was added to the cells. On day 5, culture plates were gently swirled and the floating and loosely adherent cells were discarded. Aliquots of 75% culture media were replenished with 20 ng/mL mGM-CSF and 20 ng/mL mIL-4. On day 7, mouse BMDCs (95% pure CD11b and MHC II) were harvested and incubated in RPMI 1640 medium containing 1 mM sodium pyruvate, 0.1 mM nonessential amino acids, 100 U/ml penicillin, 100 μg/ml streptomycin, and supplemented with 10% fetal bovine serum (Invitrogen, Carlsbad, Calif.) for 24 h at 37° C. with or without test chemicals in the presence or absence of LPS (100 ng/ml).\nBMDCs were treated with or without test chemicals in the presence or absence of LPS (100 ng/ml) for 24 h at 37° C. Aliquots of supernatants from DC cultures were assayed for IL-6 and TNF-α using commercial ELISA kits (R&D Systems, Minneapolis, Minn.) following the manufacturer's recommendations.\nSeveral studies have reported that the secretion of specific cytokines, including IL-1β, TNF-α and IL-6 by keratinocytes and various immune cells is involved in cutaneous inflammation (Nestle F O, Di Meglio P, Qin J Z, Nickoloff B J. Nature reviews Immunology 2009, 9:679-691; De Vry C G, Valdez M, Lazarov M, Muhr E, Buelow R, Fong T, Iyer S. J Invest Dermatol 2005, 125:473-481; Cumberbatch M, Dearman R J, Kimber I. Immunology 1996, 87:513-518). In order to investigate the anti-inflammatory effect of BrD1 on cytokine expression, mouse bone marrow-derived dendritic cells were used to evaluate the inhibitory effect of BrD1 on LPS-induced expressions of TNF-α and IL-6. In our time-course study for expression of TNF-α and IL-6, after LPS stimulation, a high expression of TNF-α and IL-6 was maintained at 24 h (FIG. 6A). We therefore chose 24 h as the time point at which to assess the expression of TNF-α and IL-6."}, "NF-κB": {"test_system": "NF-κB", "assay": "TPA-induced NF-κB phosphorylation in mouse skin, western blot", "format": "in vivo", "conditions": "topical for 2 h after TPA", "procedure": "as §1, §2"}, "Erk1/2": {"test_system": "Erk1/2", "assay": "TPA-induced Erk phosphorylation in mouse skin, western blot", "format": "in vivo", "conditions": "topical for 2 h after TPA", "procedure": "as §1, §2"}, "IκBα": {"test_system": "IκBα", "assay": "TPA-stimulated IκBα phosphorylation in mouse skin, western blot", "format": "in vivo", "conditions": "topical for 2 h after TPA", "procedure": "as §1, §2"}}}
{"smiles": "CCCC(=O)O[C@H]1C/C(C)=C\\[C@@H]2OC(=O)[C@]3(C)O[C@]23[C@@H](OC(C)=O)[C@H]2[C@@H](C)[C@@H](O)C[C@H](OC(C)=O)[C@]2(C)[C@H]1OC(C)=O", "note": "[BrD1, excavatolide B]", "values": [{"measurement": "TNF-α expression in LPS-stimulated dendritic cells", "setting": "TNF-α", "result": "inhibited TNF-a expression to a much lesser extent"}, {"measurement": "TNF-α expression in LPS-stimulated dendritic cells", "setting": "TNF-α; listed as Excavatolide B", "result": "inhibits TNF-α expression to a much lesser extent"}, {"measurement": "TPA-stimulated phosphorylation of Akt", "setting": "Akt", "result": "significantly inhibited the TPA-stimulated phosphorylation of Akt"}, {"measurement": "TPA-stimulated phosphorylation of Akt", "setting": "Akt; listed as excavatolide B", "result": "significantly inhibits the TPA-stimulated phosphorylation of Akt"}, {"measurement": "inhibition of LPS-induced IL-6 expression (structure-activity relationship)", "setting": "IL-6; DCs co-treated with LPS and BrDs at 20 μM", "result": "significantly inhibited the expression of cytokine IL-6"}, {"measurement": "IL-6 expression in LPS-stimulated dendritic cells", "setting": "IL-6", "result": "strongly inhibited IL-6 expression"}, {"measurement": "IL-6 expression in LPS-stimulated dendritic cells", "setting": "IL-6; listed as Excavatolide B", "result": "strongly inhibits IL-6 expression"}, {"measurement": "phosphorylation of NF-κB", "setting": "NF-κB", "result": "effectively inhibited the phoshporylation of NF-κB"}, {"measurement": "phosphorylation of NF-κB", "setting": "NF-κB; listed as excavatolide B", "result": "effectively inhibits the phoshporylation of NF-κB"}, {"measurement": "TPA-induced Erk phosphorylation", "setting": "Erk1/2", "result": "inhibit TPA-induced Erk phosphorylation only slightly"}, {"measurement": "TPA-stimulated phosphorylation of IκBα", "setting": "IκBα", "result": "significantly inhibited the TPA-stimulated phosphorylation of Akt and IκBα"}, {"measurement": "TPA-stimulated phosphorylation of IκBα", "setting": "IκBα; listed as excavatolide B", "result": "significantly inhibits the TPA-stimulated phosphorylation of Akt and IκBα"}]}
